Values of other authors in patent US8975284B2, “Co-solvent compositions and methods for improved delivery of dantrolene therapeutic agents” (US WorldMeds LLC, priority 2007, dated 2015).
Like-named read-outs stand apart in the source and are kept apart here.

Columns and labels:
[1] = not given; remark: listed apart in the source
[2] = not given; remark: listed apart in the source

pKa	solubility of free acid form [2]	Structure (SMILES)	pKa [1]
7.4	–	O=C1CN(/N=C/c2ccc(-c3ccc([N+](=O)[O-])cc3)o2)C(=O)[N-]1.[Na+] [Dantrolene sodium, 1-[[5-(p-nitrophenyl)furfurylidene]-amino]hydantoin sodium salt]	–
–	–	CC(C)(C)O [TBA, Tertiary Butyl Alcohol]	15.37 ± 0.29
about 7.5	totally insoluble	O=C1CN(N=Cc2ccc(-c3ccc([N+](=O)[O-])cc3)o2)C(=O)N1 [dantrolene, 1-[5-(p-nitrophenyl)furfurylideneamino]hydantoin]	–
